These results are taken from patent US20210207161A1, “PLANTS CONTAINING ELITE EVENT EE-GM5 AND METHODS AND KITS FOR IDENTIFYING SUCH EVENT IN BIOLOGICAL SAMPLES, AND TREATMENT THEREOF” (priority 2018, published 2021).

Data set [1] concerns soybean plants containing event EE-GM5. Put plainly: HPPD inhibitor herbicide tolerance field trials (maximum phytotoxicity). Conditions: for average maximum phytotoxicity value: several field trials across 2 years; for tolerance of plants with EE-GM5 to the herbicide: field, different locations over 2 years. In kind it is in vivo, soybean (Glycine max). The text has this:
Numbers in ( ) below a treatment give the number of trials included in the bar, the number on top of each bar gives the average maximum phytotoxicity value for that treatment. Treatments applied were: IFT=isoxaflutole, MST=mesotrione, PE=pre-emergence, P0=post-emergence (at V2-V3 stage, with adjuvants crop oil concentrate and ammonium sulfate added to increase herbicide activity). Rates shown are in gram active ingredient/hectare (4× dose in pre-emergence, 2× dose in post-emergence).
Tolerance of plants comprising EE-GM5 to HPPD inhibitor herbicides was tested at different locations in the field over 2 years. […] All post-emergence treatments were at the V2-V3 stage, with adjuvants crop oil concentrate and ammonium sulfate added to increase herbicide activity.
The “maximum phytotoxicity” as used herein is the highest phytotoxicity rating recorded at any observation during the duration of a trial (with 3 to 4 observations per trial). In existing weed control applications, a normal (lx) dose for isoxaflutole (IFT) in pre- or post-emergence application and for MST in post-emergence application is 105 gr/ha, and a normal (lx) dose for mesotrione in pre-emergence application is 210 gr/ha.
Also, in several field trials across 2 years, soybean plants with event EE-GM5 had good tolerance towards experimental HPPD inhibitor compound 2-methyl-N-(5-methyl-1,3,4-oxadiazol-2-yl)-3-(methylsulfonyl)-4-(trifluoromethyl)benzamide (U.S. Pat. No. 9,101,141) when applied pre-emergence at 400 gr ai/ha or post-emergence at 200 gr ai/ha, respectively (the average maximum phytotoxicity value for each treatment was below 20%). […] All post-emergence treatments were at the V2-V3 stage, with adjuvants crop oil concentrate and ammonium sulfate added to increase herbicide activity.
Also, plants with EE-GM5 when treated post-emergent (V2-V3) with topramezone at 36 g ai/ha (+COC and AMS) in 2 field trials in the US gave an average maximum phytotoxicity of 11%, showing EE-GM5 also confers good tolerance to this HPPD inhibitor.

The test system is the same in data set [2]. The description is as above. In kind it is in vivo, soybean (Glycine max). Conditions: 3rd year.
[3] abbreviates: applied post-emergence (V2-V3 stage, with adjuvants).

In the case of `CSc1c(C(F)(F)F)ccc(C(=O)Nc2nnnn2C)c1Cl` [2-chloro-3-(methylsulfanyl)-N-(1-methyl-1H-tetrazol-5-yl)-4-(trifluoromethyl)benzamide], the average maximum phytotoxicity in data set [1] (post-emergence (V2-V3) at 100-150 gr ai/ha, with crop oil concentrate and ammonium sulfate) amounted to 20%; in data set [2] (post-emergence at 150 g/ha, 3 field trial locations, Thorne background), 13.3%.

As for `Cc1nnc(NC(=O)c2ccc(C(F)(F)F)c(S(C)(=O)=O)c2C)o1` [2-methyl-N-(5-methyl-1,3,4-oxadiazol-2-yl)-3-(methylsulfonyl)-4-(trifluoromethyl)benzamide], the “average maximum phytotoxicity value” in data set [1] (post-emergence (V2-V3) at 200 gr ai/ha, with crop oil concentrate and ammonium sulfate) was “below 20%”; in data set [1] (pre-emergence at 400 gr ai/ha), “below 20%”.

For the compound `CS(=O)(=O)c1cc(C(F)(F)F)ccc1C(=O)c1cnoc1C1CC1` [isoxaflutole, (5-cyclopropyl-4-isoxazolyl)[2-(methylsulfonyl)-4-(trifluoromethyl)phenyl]methanone], the “tolerance of plants with EE-GM5 to the herbicide” value in data set [1] (setting [3]) and in data set [1] (applied pre-emergence) was “commercially relevant tolerance” in each case. The compound further came in with an average maximum phytotoxicity in data set [2] (post-emergence (V2-V3 stage), 210 h/ha, 4 locations, EE-GM5 in Thorne background) of 10.9%. Moreover, the maximum phytotoxicity in data set [2] (pre-emergence, 410 g/ha, one field trial location, EE-GM5 in Thorne background) stood at 9%.

`CS(=O)(=O)c1ccc(C(=O)C2C(=O)CCCC2=O)c([N+](=O)[O-])c1` [mesotrione, 2-[4-(Methylsulfonyl)-2-nitrobenzoyl]cyclohexane-1,3-dione]: the “tolerance of plants with EE-GM5 to the herbicide” value in data set [1] (setting [3]) and in data set [1] (applied pre-emergence) was “commercially relevant tolerance” in each case.

In turn, `Cc1c(C(=O)c2cnn(C)c2O)ccc(S(C)(=O)=O)c1C1=NOCC1` [topramezone, [3-(4,5-dihydro-3-isoxazolyl)-2-methyl-4-(methylsulfonyl)phenyl](5-hydroxy-1-methyl-1H-pyrazol-4-yl)methanone] showed an average maximum phytotoxicity in data set [1] (post-emergent (V2-V3) at 36 g ai/ha (+COC and AMS), 2 field trials in the US) of 11%.
